What follows are molecules tested against KRas G12D/Q61H double mutant (Homo sapiens (Human), UniProt P01116, G12D/Q61H) (assay: Ras GTP binding domain inhibition assay (labeled GTP)). Conditions: 20 μM compound; read-out: % Inhibition at 20 μM KRas G12D Q61H.
In short: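 His-tagged KRas protein (3-10 μg/ml) was captured overnight at 4° C on nickel-coated wells in 50 mM Tris pH 7.5, 1 mM MgCl2, 1 mM DTT. Bound labeled GTP was read by fluorescence after washing.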

Sequence of KRas G12D/Q61H double mutant (P01116-2 other isoform, or with tags, fused parts or gaps G12D/Q61H): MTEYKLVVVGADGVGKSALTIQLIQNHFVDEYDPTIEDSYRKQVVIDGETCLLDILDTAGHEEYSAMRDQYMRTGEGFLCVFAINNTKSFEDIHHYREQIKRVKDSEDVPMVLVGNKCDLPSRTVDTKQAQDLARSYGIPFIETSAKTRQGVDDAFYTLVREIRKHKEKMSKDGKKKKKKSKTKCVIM

inhibition at 20 µM [%] | SMILES
25 to 50 | O=C(c1ccccc1)N1CCCc2c(O)nc(-c3ccccn3)nc21
25 to 50 | Nc1nc(O)c2scc(C(=O)N3CCN(c4ccccc4)CC3)c2n1
25 to 50 | Nc1nc(O)c2scc(C(=O)N3CCN(c4ccncc4)CC3)c2n1
1 to 25 | CC1(N)CCN(C(=O)c2csc3c(O)nc(N)nc23)CC1
1 to 25 | COCCOCCN(C)C(=O)c1csc2c(O)nc(N)nc12
25 to 50 | N#Cc1ccc(C2(C(=O)Nc3ccnc(-c4ccccn4)n3)CCCC2)cc1
25 to 50 | COc1ccc(N2CCN(C(=O)c3csc4c(O)nc(-c5ccccn5)nc34)CC2)cc1
25 to 50 | O=C(c1csc2c(O)nc(-c3ccccn3)nc12)N1CCN(c2cccc(O)c2)CC1
25 to 50 | O=C(c1csc2c(O)nc(-c3ccccn3)nc12)N1CCN(c2ccc(O)cc2)CC1
25 to 50 | O=C(c1csc2c(O)nc(-c3ccccn3)nc12)N1CCN(c2ccc(Cl)cc2)CC1
25 to 50 | COc1cc(F)ccc1N1CCN(C(=O)c2csc3c(O)nc(-c4ccccn4)nc23)CC1
25 to 50 | COc1ccc(CN2CCN(C(=O)c3csc4c(O)nc(-c5ccccn5)nc34)CC2)cc1OC
25 to 50 | CC1CN(Cc2ccccc2)CCN1C(=O)c1csc2c(O)nc(-c3ccccn3)nc12 (stereo not shown)
51 to 75 | O=C(c1csc2c(O)nc(-c3ccccn3)nc12)N1CCOC(c2cccc(O)c2)C1 (stereo not shown)
25 to 50 | O=C(c1csc2c(O)nc(-c3ccccn3)nc12)N1CCNC(c2ccccc2)C1 (stereo not shown)
25 to 50 | O=C(c1csc2c(O)nc(-c3ccccn3)nc12)N1CCNC(c2cccc(Cl)c2)C1 (stereo not shown)
76 to 100 | Cc1nccc(-c2nc3cc(F)ccc3c(=O)[nH]2)n1
51 to 75 | O=C(Nc1nnc(-c2ccccn2)[nH]1)C1CCCN(c2ncccc2C(F)(F)F)C1 (stereo not shown)
51 to 75 | O=C(CCc1nc2ccccc2[nH]1)Nc1nnc(-c2ccccn2)[nH]1
51 to 75 | Cc1nc(-c2ccccn2)[nH]c(=O)c1CC(=O)NC1CCCCCCC1
51 to 75 | O=c1[nH]c(-c2cc(OCC(F)F)ccn2)nc2cc(F)ccc12
25 to 50 | C=CCCOC(C)C(=O)Nc1nnc(-c2ccccn2)[nH]1 (stereo not shown)
25 to 50 | COCC(O)CN1CCC(Nc2nc(-c3ccccn3)nc3c2CCC3)CC1 (stereo not shown)
25 to 50 | COc1ccccc1CC(=O)Nc1nnc(-c2ccccn2)[nH]1
25 to 50 | Cc1cc(O)nc(-c2ccccn2)n1
25 to 50 | c1ccc(-c2csc3nc(-c4ccccn4)nc(NCCN4CCOCC4)c23)cc1

inhibition at 20 µM [%] | SMILES
25 to 50 | COc1cc(CC(=O)Nc2nnc(-c3ccccn3)[nH]2)cc(OC)c1OC
25 to 50 | O=C(Nc1nnc(-c2ccccn2)[nH]1)c1ccc(Cn2ccccc2=O)o1
25 to 50 | OC[C@H]1C=C[C@@H](Nc2nc(-c3ccccn3)nc3c2CCC3)C1
25 to 50 | O=C(Nc1nnc(-c2ccccn2)[nH]1)c1ccc(Cn2cncn2)cc1
25 to 50 | CCCCN(C(=O)c1nn(-c2ccccc2)nc1C)c1ccccc1
25 to 50 | Cc1nc(CC(=O)Nc2nnc(-c3ccccn3)[nH]2)cs1
25 to 50 | O=c1[nH]c(-c2ccccn2)nc2ccccc12
25 to 50 | O=C(Nc1nnc(-c2ccccn2)[nH]1)c1ccc(N2CCCCC2=O)cc1
25 to 50 | O=C(CCN1C(=O)CSc2ccccc21)Nc1nnc(-c2ccccn2)[nH]1
25 to 50 | CC(=O)N1CCC(C(=O)Nc2nnc(-c3ccccn3)[nH]2)CC1
25 to 50 | O=C(Nc1nnc(-c2ccccn2)[nH]1)C1CCS(=O)(=O)C1 (stereo not shown)
25 to 50 | CC(C)N1CC(C(=O)Nc2nnc(-c3ccccn3)[nH]2)CC1=O (stereo not shown)
25 to 50 | O=C(Nc1nnc(-c2ccccn2)[nH]1)C1CC(c2ccccc2)C1 (stereo not shown)
25 to 50 | Cc1cnn(CCC(=O)Nc2nnc(-c3ccccn3)[nH]2)c1
25 to 50 | CC(C)CCS(=O)(=O)CC(=O)Nc1nnc(-c2ccccn2)[nH]1
1 to 25 | O=C(NCCc1cccs1)c1cc(S(=O)(=O)N2CCCCC2)ccc1N1CCOCC1
1 to 25 | FC(F)(F)c1cccc(N2CCN(c3ncnc4sccc34)CC2)c1
1 to 25 | O=C(Nc1nnc(-c2ccccn2)s1)c1nccc2ccccc12
1 to 25 | COc1ccc(CCNC(=O)c2cc(S(=O)(=O)N3CCOCC3)ccc2OC)cc1OC
1 to 25 | CN(C)C1CN(C(=O)Nc2nc(-c3cccnc3)cs2)C1
1 to 25 | COc1cc(C)ccc1OS(=O)(=O)N1CCc2ccccc2C1
1 to 25 | CC(C)Cc1nc(CN(C)CC(=O)Nc2ccc(Cl)c(S(=O)(=O)N3CCOCC3)c2)no1
1 to 25 | CCN(CC(=O)Nc1ccccc1OC)Cc1coc(-c2cccs2)n1
1 to 25 | Cc1cc(C)n2nc(CC(=O)N(Cc3ccc(F)cc3)C3CC3)nc2n1
1 to 25 | C#Cc1cccc(N(CC(=O)N2CCOCC2)C(=O)c2ccc(COc3ccccc3F)o2)c1
1 to 25 | N#CC1CN(c2nccc(C(F)(F)F)n2)CCN1Cc1ccccc1 (stereo not shown)

inhibition at 20 µM [%] | SMILES
1 to 25 | CCN(CC)S(=O)(=O)c1ccc(NCCOC)c(C(=O)NCCC(C)C)c1
1 to 25 | CN(c1ccccc1)c1ccccc1NCc1nnnn1-c1ccccc1
1 to 25 | O=C(NCc1ccccn1)c1csc(-c2ccc(Cl)cc2)n1
1 to 25 | Cc1cccc(Oc2ccc(S(=O)(=O)N3CCCCC3)cc2NCc2cc(C)on2)c1
1 to 25 | N#Cc1ccccc1CN1CCN(c2cccc(C(F)(F)F)c2)CC1
1 to 25 | Cc1cc(C2CCCN2c2cc(C(F)(F)F)nc3ncnn23)no1 (stereo not shown)
1 to 25 | CCOC(=O)CCN(Cc1cccnc1)c1nc(C(F)(F)F)ccc1C#N
1 to 25 | Cc1noc(CN(Cc2ccc(C#N)cc2)Cc2cccc(F)c2)n1
1 to 25 | Fc1ccccc1-c1csc(C2CN(Cc3ccccc3)CCO2)n1 (stereo not shown)
1 to 25 | O=C(CCN1C(=O)NC2(CCCCC2)C1=O)Nc1nnc(-c2ccccn2)[nH]1
1 to 25 | CC(=O)Nc1ccc(C(F)(F)F)cc1NCc1nc(C)no1
1 to 25 | CCOC(=O)c1sc(N(C2CC2)S(=O)(=O)c2ccc(OC)c(C)c2)nc1C
1 to 25 | Cc1cccc(OCCn2c(CN3CCCCC3)nc3ccccc32)c1C
1 to 25 | CCCCCCNC(=O)c1cc(S(=O)(=O)N(C)C)ccc1N1CCOCC1
1 to 25 | CCOCc1c(C(=O)N(Cc2cccs2)Cc2ccccc2OC)oc2ccccc12
1 to 25 | Cc1nc(CNc2ccccc2Oc2cccc(F)c2)no1
1 to 25 | CC(=O)Nc1ccc(-c2nc(NC3CCCCC3)sc2C)cc1
1 to 25 | Cc1nc(-c2ccccn2)sc1C(=O)NCCNc1ncccn1
1 to 25 | Cc1ccc(-c2nnc(C(C)N3CCCc4ccccc43)o2)cc1 (stereo not shown)
1 to 25 | CC(c1nc2ccccc2n1CCOc1ccccc1)N1CCCCC1 (stereo not shown)
1 to 25 | CC1(C)NC(=O)N(CC(=O)Nc2nc(-c3ccccn3)cs2)C1=O
1 to 25 | Cc1cccc(CN(Cc2ccccn2)Cc2ncc(C(C)(C)C)o2)c1
1 to 25 | CC(C)Cc1cc(C(=O)Nc2cc(-c3cccnc3)n[nH]2)[nH]n1
1 to 25 | COc1ccccc1CN(Cc1cccs1)C(=O)c1ccc(-c2nnn[nH]2)cc1
1 to 25 | CCc1cc(NNC(=O)C2CC2)nc(-c2ccccn2)n1
1 to 25 | CCCn1c(CNc2ccccc2OCCOC)nc2cc(S(=O)(=O)N(C)C)ccc21

inhibition at 20 µM [%] | SMILES
1 to 25 | Cc1ccc(C)c(OCC(O)CN(c2nccs2)S(=O)(=O)c2ccccc2)c1 (stereo not shown)
1 to 25 | Cc1ccc(CN(C(=O)c2cc(-c3ccccc3Cl)[nH]n2)C2CC2)o1
1 to 25 | CN(Cc1ccco1)C(=O)c1ccc(COc2ccccc2)o1
1 to 25 | O=C(c1nccc2ccccc12)N(Cc1nccn1C(F)F)C1CC1
1 to 25 | COc1cccc(OCCn2c(CN3CCOCC3)nc3ccccc32)c1
1 to 25 | N#Cc1ccccc1S(=O)(=O)NC(c1ccccc1)c1ccccn1 (stereo not shown)
1 to 25 | CC(C)COC(C)c1noc(CN(Cc2ccccc2O)C(C)c2ccccc2)n1 (stereo not shown)
1 to 25 | CN(Cc1ccc(C(F)(F)F)cc1)Cc1cc([N+](=O)[O-])cc2c1OCOC2
1 to 25 | CCOc1ccc(NC(=O)CN(C)Cc2coc(-c3ccc(C)cc3C)n2)cc1OCC
1 to 25 | O=C(c1cc(-c2ccc(F)cc2)[nH]n1)N(Cc1ccco1)C1CCCC1
1 to 25 | CN(Cc1nnc(-c2ccccc2Cl)o1)Cc1ccccc1N1CCCC1
1 to 25 | COC(=O)CCN(Cc1cc(Br)cc(C(F)(F)F)c1)C1CCOCC1
1 to 25 | CC(C)N(Cc1ccccn1)Cc1nc2ccccc2n1C(F)F
1 to 25 | Cc1noc(CN2CCOC(c3nc(-c4ccccc4)cs3)C2)n1 (stereo not shown)
1 to 25 | CN(C)C(=O)CCN1CCOC(c2nc(-c3ccccc3)cs2)C1 (stereo not shown)
1 to 25 | Cc1cccc(OC2CCN(c3nc(-c4ccccn4)nc4c3CCC4)CC2)n1
1 to 25 | CN(Cc1nnc(-c2ccccc2)o1)Cc1ccccc1N1CCCC1
1 to 25 | Cc1c(C(=O)N(c2ccccc2)C(C)C)cnn1-c1ccccn1
1 to 25 | Cc1csc(C2CN(Cc3ccn(C)c(=O)c3)CCO2)n1 (stereo not shown)
1 to 25 | CC(c1nc(N)nc(N(C)C)n1)N1CCN(c2cccc(C(F)(F)F)c2)CC1 (stereo not shown)
1 to 25 | O=c1[nH]c(-c2ccnc(Oc3ccccc3Cl)c2)nc2ccsc12
1 to 25 | CN(Cc1ccc(Br)cc1)Cc1ccc(C(=O)NCC(F)(F)F)cc1
1 to 25 | O=C(Nc1nc(-c2ccccn2)cs1)c1cc(F)cc(F)c1
1 to 25 | CS(=O)(=O)Nc1nc(-c2ccccn2)nc2scc(-c3ccccc3)c12
1 to 25 | COC(=O)c1ccc(C(=O)N2Cc3ccccc3C(c3ccccc3)C2)nc1 (stereo not shown)

— patent US10940139B2, “Compounds that interact with the Ras superfamily for the treatment of cancers, inflammatory diseases, rasopathies, and fibrotic disease” (Shy Therapeutics LLC, priority 2017, dated 2021)
